# Counter-ions that a name gives are not always drawn. Like-named read-outs stand apart in the source and are kept apart here.
# Experiments:
# [1] = target: PIM-1 (Homo sapiens (Human), UniProt P11309); experiment: PIM-1 Enzyme Assay; format: biochemical
# Protocol: The amount of radiolabeled product is then measured by liquid scintillation counting. The final buffer conditions were as follows: 20 mM K^+MOPS, pH 7.4, 10 mM MgCl2, 0.005% Tween-20, 1 mM DTT. […] Incubations were carried out for 60 min at 22° C. and quenched with 75 μL of 200 mM H3PO4, filtered through a Whatman P81 plate and washed (1×200 μL and 5×100 μL ) with 200 mM H3PO4. Liquid scintillation cocktail (50 μL ) was then added per well, and the plate was counted for 30 s/well using a TopCount NXT.
# One-μL aliquots of these were then transferred to the assay mixtures above to give a final concentration of DMSO of 2%. […] For each plate, percent of control (POC) values were calculated for each well. IC50's were estimated from the POC's using a standard 4-parameter logistic model. The IC50 is defined as the concentration of inhibitor at which the POC equals 50 for the fitted curve.
# [2] = target: GST-tagged recombinant full-length human PIM-2 (Homo sapiens (Human), UniProt Q9P1W9); experiment: PIM-2 Enzyme Assay
# [3] = target: recombinant rat PIM-3 (Rattus norvegicus (Rat), UniProt O70444); experiment: PIM-3 Enzyme Assay; conditions: 30 μM ATP, 0.5 nM PIM-3
# [4] = read-out: PIM-2 IC50, 4 μM ATP, […] PIM-2
# [5] = PIM-2 IC50 (nM), 4 μM ATP, […] PIM-2
# Chain of PIM-1 (P11309 whole entry, species assumed): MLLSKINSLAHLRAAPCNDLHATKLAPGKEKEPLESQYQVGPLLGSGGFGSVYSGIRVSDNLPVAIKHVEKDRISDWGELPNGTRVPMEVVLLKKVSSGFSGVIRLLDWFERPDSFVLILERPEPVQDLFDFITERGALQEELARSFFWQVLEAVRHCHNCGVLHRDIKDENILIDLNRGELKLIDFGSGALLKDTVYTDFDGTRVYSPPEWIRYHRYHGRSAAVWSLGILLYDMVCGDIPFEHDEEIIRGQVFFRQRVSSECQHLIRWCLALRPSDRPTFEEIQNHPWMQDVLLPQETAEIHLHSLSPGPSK
# Chain of GST-tagged recombinant full-length human PIM-2 (Q9P1W9 whole entry): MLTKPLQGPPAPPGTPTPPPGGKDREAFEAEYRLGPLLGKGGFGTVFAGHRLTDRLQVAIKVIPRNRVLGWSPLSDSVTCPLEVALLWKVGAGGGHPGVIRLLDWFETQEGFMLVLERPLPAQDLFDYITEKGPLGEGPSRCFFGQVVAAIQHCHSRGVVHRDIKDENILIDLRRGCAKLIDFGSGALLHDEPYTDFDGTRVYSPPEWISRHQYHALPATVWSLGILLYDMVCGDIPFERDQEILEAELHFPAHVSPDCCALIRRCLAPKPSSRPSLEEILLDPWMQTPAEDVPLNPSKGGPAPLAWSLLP
Compound,"IC50 ([1]; 35 μM ATP, 0.25 nM PIM-1) [nM]","IC50 [2, 4] [nM]",IC50 ([3]; read-out: PIM-3 IC50) [nM],further results
"F[C@H]1CNCC[C@@H]1Oc1cccc2ccc(-c3nnc4ccccn34)nc12 (relative stereo) [Example 25, 2-([1,2,4]triazolo[4,3-a]pyridin-3-yl)-8-((trans)-3-fluoropiperidin-4-yloxy)quinoline]",4,686,20,–
"Fc1ccc2nnc(-c3ccc4cccc(O[C@H]5CCNC[C@H]5F)c4n3)n2c1 (relative stereo) [Example 59, 2-(6-fluoro-[1,2,4]triazolo[4,3-a]pyridin-3-yl)-8-((cis)-3-fluoropiperidin-4-yloxy)quinoline]",55,2870,98,–
"Fc1cc(O[C@H]2CCNC[C@H]2F)c2nc(-c3nnc4ccccn34)ccc2c1 (relative stereo) [Example 88, 2-([1,2,4]triazolo[4,3-a]pyridin-3-yl)-6-fluoro-8-((cis)-3-fluoropiperidin-4-yloxy)quinoline]",8,502,24,–
"FC1CCNCCC1Oc1cccc2ccc(-c3nnc4ccccn34)nc12 (single isomer, unassigned) [Example 47, 2-([1,2,4]triazolo[4,3-a]pyridin-3-yl)-8-(-5-fluoroazepan-4-yloxy)quinoline dihydrochloride]",32,–,–,"IC50 [2, 5]: 1170 nM; IC50 ([3]; PIM-3 IC50 (nM)): 41 nM"
"FC1CCNCCC1Oc1cccc2ccc(-c3nnc4ccccn34)nc12 (single isomer, unassigned) [Example 48, 2-([1,2,4]triazolo[4,3-a]pyridin-3-yl)-8-(5-fluoroazepan-4-yloxy)quinoline dihydrochloride]",0.7,–,–,"IC50 [2, 5]: 147 nM; IC50 ([3]; PIM-3 IC50 (nM)): 4 nM"
"FC1CCNCCC1Oc1cccc2ccc(-c3nnc4ccccn34)nc12 (single isomer, unassigned) [Example 49, 2-([1,2,4]triazolo[4,3-a]pyridin-3-yl)-8-(5-fluoroazepan-4-yloxy)quinoline dihydrochloride]",0.92,–,–,"IC50 [2, 5]: 100 nM; IC50 ([3]; PIM-3 IC50 (nM)): 2 nM"
"FC1CCNCCC1Oc1cccc2ccc(-c3nnc4ccccn34)nc12 (single isomer, unassigned) [Example 50, 2-([1,2,4]triazolo[4,3-a]pyridin-3-yl)-8-(5-fluoroazepan-4-yloxy)quinoline dihydrochloride]",12,–,–,"IC50 [2, 5]: 290 nM; IC50 ([3]; PIM-3 IC50 (nM)): 8 nM"
"NCCCOc1cccc2ccc(-c3nnc4ccccn34)nc12 [Example 10, 3-(2-([1,2,4]Triazolo[4,3-a]pyridin-3-yl)quinolin-8-yloxy)propan-1-amine]",–,514,13,–
"COC(=O)[C@@H]1C[C@@H](Oc2cccc3ccc(-c4nnc5ccccn45)nc23)CCN1 [Example 13, (2S,4S)-Methyl 4-(2-([1,2,4]triazolo[4,3-a]pyridin-3-yl)quinolin-8-yloxy)piperidine-2-carboxylate]",–,189,9,–
"CC(C)(CO)COc1cccc2ccc(-c3nnc4ccccn34)nc12 [Example 24, 3-(2-([1,2,4]triazolo[4,3-a]pyridin-3-yl)quinolin-8-yloxy)-2,2-dimethylpropan-1-ol]",–,77,4,–
"CCNCC(C)(C)COc1cccc2ccc(-c3nnc4ccccn34)nc12 [Example 27, 3-(2-([1,2,4]triazolo[4,3-a]pyridin-3-yl)quinolin-8-yloxy)-N-ethyl-2,2-dimethylpropan-1-amine di-trifluoroacetate]",–,323,13,–
"CNCC(C)(C)COc1cccc2ccc(-c3nnc4ccccn34)nc12 [Example 28, 3-(2-([1,2,4]triazolo[4,3-a]pyridin-3-yl)quinolin-8-yloxy)-N,2,2-trimethylpropan-1-amine]",–,143,4,–
"COC(=O)[C@@H]1C[C@H](Oc2cccc3ccc(-c4nnc5ccccn45)nc23)CN1 [Example 87, (2S,4S)-methyl 4-(2-([1,2,4]triazolo[4,3-a]pyridin-3-yl)quinolin-8-yloxy)pyrrolidine-2-carboxylate]",167,–,248,–
"Fc1cc(OCC2(F)CNC2)c2nc(-c3nnc4ccccn34)ccc2c1 [Example 108, 2-([1,2,4]triazolo[4,3-a]pyridin-3-yl)-6-fluoro-8-((3-fluoroazetidin-3-yl)methoxy)quinoline Dihydrochloride]",–,489,–,IC50 [1]: 7.3 nM
"COc1ccc2nnc(-c3ccc4cccc(OCC5(F)CCNCC5)c4n3)n2c1 [Example 109, 8((4-fluoropiperidin-4-yl)methoxy)-2-(6-methoxy-[1,2,4]triazolo[4,3-a]pyridin-3-yl)quinoline dihydrochloride]",4.7,384,–,–
"COc1ccc2nnc(-c3ccc4cc(F)cc(OCC5(F)CCNCC5)c4n3)n2c1 [Example 110, 6-fluoro-8-((4-fluoropiperidin-4-yl)methoxy)-2-(6-methoxy-[1,2,4]triazolo[4,3-a]pyridin-3-yl)quinoline dihydrochloride]",1.9,163,–,–

Compound,"IC50 ([1]; 35 μM ATP, 0.25 nM PIM-1) [nM]","IC50 [2, 4] [nM]",IC50 ([3]; read-out: PIM-3 IC50) [nM],further results
"CC(C)(COc1cccc2ccc(-c3nnc4ccccn34)nc12)[C@@H](O)CO [Example 113, (R)-4-(2-([1,2,4]triazolo[4,3-a]pyridin-3-yl)quinolin-8-yloxy)-3,3-dimethylbutane-1,2-diol]",–,167,8.8,–
"COC1(COc2cc(F)cc3ccc(-c4nnc5ccccn45)nc23)CCCNCC1 (stereo not drawn) [Example 114, 2-([1,2,4]triazolo[4,3-a]pyridin-3-yl)-6-fluoro-8-((4-methoxyazepan-4-yl)methoxy)quinoline bis-trifluoroacetate]",0.7,86,–,–
"COC1(COc2cc(F)cc3ccc(-c4nnc5ccccn45)nc23)CCCN(CCO)CC1 (stereo not drawn) [Example 115, 2-(4-42-([1,2,4]triazolo[4,3-a]pyridin-3-yl)-6-fluoroquinolin-8-yloxy)methyl)-4-methoxyazepan-1-yl)ethanol dihydrochloride]",1.4,222,–,–
"OC1(COc2cccc3ccc(-c4nnc5ccccn45)nc23)CCCNCC1 (stereo not drawn) [Example 116, 4-((2-([1,2,4]triazolo[4,3-a]pyridin-3-yl)quinolin-8-yloxy)methyl)azepan-4-ol bis-trifluoroacetate]",11.8,–,–,IC50 ([2]; read-out: PIM-2 IC50): 1000 nM
"COC1(COc2cccc3ccc(-c4nnc5ccccn45)nc23)CCCNCC1 (stereo not drawn) [Example 117, 2-([1,2,4]triazolo[4,3-a]pyridin-3-yl)-8-((4-methoxyazepan-4-yl)methoxy)quinoline dihydrochloride]",1,91.5,–,–
CN1CCC(F)C(Oc2cccc3ccc(-c4nnc5ccccn45)nc23)CC1 (stereo not drawn) [Example 119],1.3,574,–,–
"Cc1ccn2c(-c3ccc4cccc(OCC(C)(C)CN)c4n3)nnc2c1 [Example 123, 2,2-dimethyl-3-(2-(7-methyl-[1,2,4]triazolo[4,3-a]pyridin-3-yl)quinolin-8-yloxy)propan-1-amine trihydrochloride]",0.9,156,–,–
"F[C@@H]1CNCC[C@@H]1Oc1cccc2ccc(-c3nnc4cc(Cl)ccn34)nc12 [Example 124, 2-(7-chloro-[1,2,4]triazolo[4,3-a]pyridin-3-yl)-8-((3R,4S)-3-fluoropiperidin-4-yloxy)quinoline]",31,1000,–,–
"COC1(COc2cccc3ccc(-c4nnc5cc(C)ccn45)nc23)CCNCC1 [Example 125, 8((4-methoxypiperidin-4-yl)methoxy)-2-(7-methyl-[1,2,4]triazolo[4,3-a]pyridin-3-yl)quinoline di-trifluoroacetate]",1,429,–,–
c1cc(OCC2CNCCO2)c2nc(-c3nnc4ccccn34)ccc2c1 (stereo not drawn) [Example 126],14.2,354,–,–
"NCC1(COc2cccc3ccc(-c4nnc5ccccn45)nc23)CCCC1 [Example 129, (1-((2-([1,2,4]triazolo[4,3-a]pyridin-3-yl)quinolin-8-yloxy)methyl)cyclopentyl)methanamine]",4.9,1000,–,–
CCC(CO)COc1cccc2ccc(-c3nnc4ccccn34)nc12 (stereo not drawn) [Example 130],5.8,1000,–,–
"FC1(COc2cccc3ccc(-c4nnc5ccccn45)nc23)CCCNC1 (stereo not drawn) [Example 133, 2-([1,2,4]triazolo[4,3-a]pyridin-3-yl)-8-((3-fluoropiperidin-3-yl)methoxy)quinoline]",1.6,142,–,–
"CC(C)(CNC(=O)CF)COc1cccc2ccc(-c3nnc4ccccn34)nc12 [Example 134, N-(3-(2-([1,2,4]triazolo[4,3-a]pyridin-3-yl)quinolin-8-yloxy)-2,2-dimethylpropyl)-2-fluoroacetamide]",10.1,952,–,–
"CC(C)(CNCC(F)F)COc1cccc2ccc(-c3nnc4ccccn34)nc12 [Example 135, 3-(2-([1,2,4]triazolo[4,3-a]pyridin-3-yl)quinolin-8-yloxy)-N-(2,2-difluoroethyl)-2,2-dimethylpropan-1-amine hydrochloride]",12.6,506,–,–

# — US8575145B2, “Triazolopyridine compounds as PIM kinase inhibitors” (Array BioPharma Inc., priority 2008, dated 2013)
